The nature of data set [1]: Cmax in Sprague-Dawley rat at 2 mg/kg, iv measured after 24 hrs by LC-MS analysis. Particulars: in vivo. It is filed as ADME, organism-based.
The next data set relates to HT-22. Kind of data set: Cytotoxicity against mouse HT-22 cells assessed as reduction in cell viability incubated for 48 hrs by MTT assay. It is filed as toxicity, cell-based. Conditions: ht-22, 48 h.
A short description of data set [2]: Half-life in Sprague-Dawley rat at 2 mg/kg, iv measured after 24 hrs by LC-MS analysis. It counts as ADME, organism-based. Particulars: in vivo.
Data set [3] deals with Mus musculus. Kind of data set: Protection against alcohol-induced motor impairment in C57BL/6J mouse model assessed as recovery of average speed at 1 to 2.5 mg/kg, po preadministered with compound every 24 hrs for 3 times followed by alcohol administration 30 mins post last dose and further treated with compound for 3 days followed by alcohol administration 30 mins post last dose and measured at 2 to 20 mins by open field test. It counts as functional, organism-based. Particulars: dose 1-2.5 mg/kg, time 8702-8720 min.

Data set [4] in a line: Volume of distribution at steady state in Sprague-Dawley rat at 2 mg/kg, iv measured after 24 hrs by LC-MS analysis. It counts as ADME, organism-based. Conditions: in vivo, read-out: Vdss.
A short description of data set [5]: Drug concentration in Sprague-Dawley rat liver at 10 mg/kg, po administered as single dose for 2 hrs by LC-MS analysis. It is filed as ADME, organism-based. Particulars: read-out: Ct.
A short description of data set [6]: Selectivity ratio for inhibition of PDE3B (unknown origin) using FAM-cyclic-3',5'-AMP as substrate to inhibition of PDE4B1 (unknown origin) using FAM-cyclic-3',5'-AMP as substrate.
Data set [7] can be described thus: Acute toxicity in C57BL/6J mouse assessed as druggability at 1 g/Kg, po administered for 14 days. It is filed as organism-based. Conditions: in vivo, 1000 mg/kg, 336 h, time 14 day.
In data set [8] the test system is Mus musculus. The data set is described as follows: Protection against alcohol use disorder in C57BL/6J mouse model assessed as decrease in alcohol preference at 1 to 2.5 mg/kg, po pre-trained with alcohol and water for 42 days with subsequent compound addition on day 22 and measured after 3 weeks by two-bottle choice test. It is filed as functional, organism-based. Conditions: dose 1-2.5 mg/kg.

The subject of data set [9] is Mus musculus. The data set is described as follows: Protection against alcoholic liver disease in NIAAA C57BL/6J mouse model assessed as reduction in serum IL-6 level at 1 to 2.5 mg/kg, po preadministered with 1 to 4 % of alcohol for 10 days with subsequent compound addition from day 6 to 11 and further administered with 31.25 % alcohol on day 11 and measured after 9 hrs by ELISA. It is filed as functional, organism-based. Particulars: dose 1-2.5 mg/kg, time 5.0 day. (An ELISA detects its analyte on a solid surface through an enzyme-linked reagent.)

For data set [10], the system named is Mus musculus. Kind of data set: Protection against alcoholic liver disease in NIAAA C57BL/6J mouse model assessed as decrease in liver index at 2.5 mg/kg, po preadministered with 1 to 4 % of alcohol for 10 days with subsequent compound addition from day 6 to 11 and further administered with 31.25 % alcohol on day 11 and measured after 9 hrs. It is filed as functional, organism-based. Particulars: time 5.0 day.

The test system of data set [11] is Mus musculus. The data set is described as follows: Protection against alcohol-induced motor impairment in C57BL/6J mouse model assessed as decrease in resting time at 1 to 2.5 mg/kg, po preadministered with compound every 24 hrs for 3 times followed by alcohol administration 30 mins post last dose and further treated with compound for 3 days followed by alcohol administration 30 mins post last dose and measured at 2 to 20 mins by open field test. It is filed as functional, organism-based. Particulars: dose 1-2.5 mg/kg, time 8702-8720 min.

Data set [12] can be described thus: AUC (0 to t) in Sprague-Dawley rat at 10 mg/kg, po measured after 24 hrs by LC-MS analysis. It counts as ADME, organism-based. Particulars: in vivo.
The nature of data set [13]: Selectivity ratio for inhibition of PDE9A (unknown origin) using FAM-cyclic-3',5'-AMP as substrate to inhibition of PDE4B1 (unknown origin) using FAM-cyclic-3',5'-AMP as substrate.

Activity calls are given as the source filed them. No cut-off for these calls is given here. Bounds are passed on as bounds.

As to `CCOc1nc(Cl)cc2c1cnn2CCCC(=O)O`, the Cmax in [1] stood at 23200 ng/mL. The Activity entry (in the data set on HT-22; in data set [7]) was “Non-Toxic” in each case. In data set [2], this molecule had a half-life of 3.65 h. Besides, the outcome with Mus musculus [3], in the data set with Mus musculus [8], with Mus musculus [9], in the data set on Mus musculus [10] and in the data set on Mus musculus [11] was Active. Also, the Vd in data set [4] was determined as 0.0719 L/kg. Besides, the concentration at 2 h in data set [5] is 8120 ng/g. The Selectivity ratio in data set [6] and in data set [13] was above 267 throughout. In data set [12], this molecule registered an AUC(0-t) at 24 h of 669 µg·h/mL.

As usually defined, the Cmax is the maximum level reached in the sampled fluid or tissue. The half-life is how long it takes for the measured level to halve. Read a low half-life as rapid decline. As a reminder, the AUC(0-t) is the area under the concentration-time curve up to a stated or last time point. Low readings indicate less exposure, high ones more exposure.

The record behind these values is ChEMBL document CHEMBL5532675, “Discovery of 4-Ethoxy-6-chloro-5-azaindazoles as Novel PDE4 Inhibitors for the Treatment of Alcohol Use Disorder and Alcoholic Liver Diseases” (J Med Chem, 2024).
